# Experiments:
# [1] = tested on: chicken embryos; set-up: method as in Zhang et al., 2021; conditions: ref Zhang et al., 2021, cited from earlier work; for Mortality rate: chicken embryos, 50 μg/kg dosage
# [2] = tested on: estrogen signaling pathway; conditions: cited from earlier work
# [3] = tested on: human fibroblast (WS-1); set-up: method as in Günes-Bayir et al., 2018; conditions: dose-dependent manner at 0–100 µM; ref Günes-Bayir et al., 2018; cited from earlier work
# [4] = tested on: gastric adenocarcinoma cells; set-up: method as in Günes-Bayir et al., 2018; conditions: dose-dependent manner at 0–100 µM; ref Günes-Bayir et al., 2018; cited from earlier work
# [5] = tested on: chicken embryo; assay: Chicken embryonic assay (developmental toxicity, liver TBARS); type: in vivo; conditions: for LSI (%) (liver somatic index) / REEW (ratio of embryo to egg weight) / Weights (g) Embryo / Weights (g) Heart / Weights (g) Liver: mean ± SD
# Description: In total, 124 fertilized Leghorn eggs were obtained from the University of Delaware research farm. […] On day 6, the eggs were candled, and a hole was drilled for injection of each chemical at two dosage levels, or VC at 0.2 mL. The hole was sealed with Duco Cement, and eggs were placed back in the egg incubator at 38°C and 60% relative humidity. Each test was repeated in two independent trials. The incubation ended on day 18, and the number of dead embryos was recorded during the incubation period. All embryos were dissected and evaluated for deformation, embryo mass, liver mass, heart mass, ratio of embryo to egg weight (REEW), liver somatic index (LSI), and TBARS levels as described in ([Zhang and Wu, 2022]). Each test was repeated in two independent trials and in duplicate for each trial.
# (§1) All data were reported as the mean ± standard deviation (SD) of at least two independent trials. The MCF-7 cell proliferation rates of each compound at different concentrations were compared using a one-way analysis of variance (ANOVA) followed by Dunnett’s test with the statistical software JMP 16.0. The developmental indexes (REEW, LSI, weights) and TBARS values obtained from chicken embryonic assays were evaluated by a one-way ANOVA followed by Dunnett’s test performed with JMP.
# The developmental toxicity of phenolic-soy BCFAs was evaluated at dosages reported for natural phenolics via a chicken embryo model ([Zhang et al., 2021]; [Zhang and Wu, 2022]). In the present study, 0.1% DMSO in PBS was used as VC.
# [6] = tested on: MCF-7 cells; assay: MCF-7 cell proliferation assay (estrogenic activity); type: cell-based; conditions: 10 and 100 nM, p < 0.05, positive control
# Description: MCF-7 cells were grown and maintained as previously described ([Peng et al., 2018]). The EA of creosote, creosote-soy BCFA, and iso-oleic acid was investigated at 10 nM to 1 μM. We evaluated EA for newly synthesized phenolic soy BCFAs with a focus on those who have both good performances in antimicrobial activity and low developmental toxicity in the chicken embryo model. Chemicals were dissolved in DMSO and diluted to the test concentrations (0.1% DMSO). No treatment and VC (0.1% DMSO in cell medium) were included as controls. Fresh medium with test compounds was added on day 2 and refreshed every 2 days. After 6-day exposure, cell numbers were measured by MTT assay using a microplate spectrophotometer ([Peng et al., 2018]). The test was repeated in two independent trials with triplicates for each trial, and cell proliferation rates were calculated for each compound.
# as §1
# [7] = chicken embryo day 18, dosage 3.1 μg/kg
# [8] = chicken embryo day 18, dosage 31 μg/kg
# [9] = chicken embryo day 18, egg injection day 6, dosage 3.1 μg/kg
# [10] = chicken embryo day 18, egg injection day 6, dosage 31 μg/kg
# [11] = chicken embryo day 18, egg injection day 6, dosage 31 μg/kg, listed as phenol
smiles,measurement,setting,value
Cc1ccc(C(C)C)cc1O [Carvacrol],TBARS levels in fetal chicken liver,[1]; 50 μg/kg,significantly increased TBARS levels
same,Mortality rate,[1],45.5%
same,Estrogenic activity (EA),"[2]; at 10^–12 M, ref Zhang et al., 2021",weak EA
same,Reactive oxygen species generation,[3],induced reactive oxygen species generation
same,Reactive oxygen species generation,[4],induced reactive oxygen species generation
Oc1ccccc1 [Phenol],LSI (%) (liver somatic index),[5]; [7],2.20 ± 0.25%
same,REEW (ratio of embryo to egg weight),[5]; [7],0.39 ± 0.014
same,Weights (g) Embryo,[5]; [7],23.61 ± 2.74 g
same,Weights (g) Heart,[5]; [7],0.21 ± 0.03 g
same,Weights (g) Liver,[5]; [7],0.52 ± 0.12 g
same,LSI (%) (liver somatic index),[5]; [8],2.23 ± 0.23%
same,REEW (ratio of embryo to egg weight),[5]; [8],0.36 ± 0.029
same,Weights (g) Embryo,[5]; [8],22.04 ± 2.54 g
same,Weights (g) Heart,[5]; [8],0.22 ± 0.01 g
same,Weights (g) Liver,[5]; [8],0.52 ± 0.04 g
same,Malformation rate (%),[5]; [9],0.0 (0) %
same,Mortality rate (%),[5]; [9],0.0 (0) %
same,Mortality rate (%),"[5]; chicken embryo day 18, egg injection day 6, dosage 3.1 μg/kg, listed as phenol",no mortality
same,Malformation rate (%),[5]; [10],12.5 (1) %
same,Mortality rate (%),[5]; [10],0.0 (0) %
same,Malformation rate (%),[5]; [11],deformed embryos (stunting) were observed
same,Mortality rate (%),[5]; [11],no mortality
"C[C@]12CC[C@@H]3c4ccc(O)cc4CC[C@H]3[C@@H]1CC[C@@H]2O [E2, 17β-Estradiol]",Cell proliferation rate compared with no treatment and VC,[6],significantly increased cell proliferation rates
same,Concentration of highest EA,"[2]; across the test range from 10^–15 to 10^–4 M, ref Peng et al., 2018",10 nM
same,Concentration of peak EA,"[2]; our previous findings, ref not given",10^−9 M
Cc1ccc(C(C)C)c(O)c1 [Thymol],Mortality rate,[1],no death was found

# Source: article PMC11402896, “Developmental toxicity and estrogenic activity of antimicrobial phenolic-branched fatty acids using in silico simulations and in vivo and in vitro bioassay” (Frontiers in Toxicology, 2024)
